Data as given in PubChem BioAssay AID248 (DTP/NCI, 2004).
Values joined by “and” are separate entries in the source; they are usually repeats but may differ in a detail not shown here. Identical values can stand only once. Toxic doses and inconclusive results are not listed. Cut-off read from the data, not from the text of the source: active = T/C of 150% or more; inactive = T/C below 125%.

Tested on: L1210 leukemia ip in BDF1 mice, survival T/C
Experiment: NCI In Vivo Anticancer Drug Screen. Data for tumor model L1210 Leukemia (intraperitoneal) in B6D2F1 (BDF1) mice
Conditions: endpoint: mean survival time, higher = longer survival
How it was run: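 Tumor was transplanted into mice, which were then dosed with test compound or vehicle alone. Survival was recorded for each group, and the treated figure was expressed relative to the control figure.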

[1] = dose: 200.0 mg/kg/injection, schedule: Q04DX002 (ip), vehicle: Klucel (hydroxypropylcellulose) (HPC)
[2] = dose: 100.0 mg/kg/injection, schedule: Q04DX003 (ip), vehicle: Klucel (hydroxypropylcellulose) (HPC)
[3] = dose: 200.0 mg/kg/injection, schedule: Q04DX003 (ip), vehicle: Klucel (hydroxypropylcellulose) (HPC)

Measured: T/C

O=C1c2ccccc2C(=O)c2c1cccc2N1CCOCC1
inactive: [1] 98 % of control | dose: 400.0 mg/kg/injection, schedule: Q04DX002 (ip), vehicle: Klucel (hydroxypropylcellulose) (HPC) 112 % of control

c1cnon1
inactive: dose: 100.0 mg/kg/injection, schedule: Q01DX001 (ip), vehicle: saline 102 % of control | dose: 200.0 mg/kg/injection, schedule: Q01DX001 (ip), vehicle: saline 102 % of control | dose: 400.0 mg/kg/injection, schedule: Q01DX001 (ip), vehicle: saline 95 % of control

CC(=O)Oc1ccc2ccccc2c1/C=C/c1ccncc1
inactive: dose: 6.25 mg/kg/injection, schedule: Q01DX009 (ip), vehicle: saline 104 % of control | dose: 12.5 mg/kg/injection, schedule: Q01DX009 (ip), vehicle: saline 102 % of control | dose: 25.0 mg/kg/injection, schedule: Q01DX009 (ip), vehicle: saline 96 % of control and 105 % of control | dose: 25.0 mg/kg/injection, schedule: Q04DX003 (ip), vehicle: saline 115 % of control | dose: 50.0 mg/kg/injection, schedule: Q01DX009 (ip), vehicle: saline 95 % of control | dose: 50.0 mg/kg/injection, schedule: Q04DX003 (ip), vehicle: saline 93 % of control | dose: 100.0 mg/kg/injection, schedule: Q04DX003 (ip), vehicle: saline 94 % of control and 90 % of control

O=C(O)c1ccc2c(c1)Sc1ccccc1N2
inactive: [2] 95 % of control | [3] 95 % of control

CN(C)NCC(O)COc1ccc(Cl)cc1 (stereo not drawn)
inactive: dose: 100.0 mg/kg/injection, schedule: Q04DX002 (ip), vehicle: Klucel (hydroxypropylcellulose) (HPC) 103 % of control | [1] 100 % of control

CCOC(=O)Cc1ccc2c(c1)sc(=S)n2C
inactive: [2] 96 % of control | [3] 87 % of control | dose: 400.0 mg/kg/injection, schedule: Q04DX003 (ip), vehicle: Klucel (hydroxypropylcellulose) (HPC) 92 % of control

O=C(O)c1c(Cl)c(-c2c(Cl)c(C(=O)O)c(Cl)c([N+](=O)[O-])c2Cl)c(Cl)c([N+](=O)[O-])c1Cl
inactive: dose: 100.0 mg/kg/injection, schedule: Q01DX009 (ip), vehicle: saline with Tween-80 96 % of control | dose: 200.0 mg/kg/injection, schedule: Q01DX009 (ip), vehicle: saline with Tween-80 96 % of control | dose: 400.0 mg/kg/injection, schedule: Q01DX009 (ip), vehicle: saline with Tween-80 93 % of control

COc1ccc(/C=C/c2c3cc(OC)c(OC)cc3cc3c4cc(OC)c(OC)cc4cc[n+]23)cc1OC
inactive: dose: 100.0 mg/kg/injection, schedule: Q01DX001 (ip), vehicle: carboxymethylcellulose (CMC) 93 % of control and 108 % of control | dose: 100.0 mg/kg/injection, schedule: Q04DX002 (ip), vehicle: carboxymethylcellulose (CMC) 96 % of control and 89 % of control | dose: 100.0 mg/kg/injection, schedule: Q04DX003 (ip), vehicle: carboxymethylcellulose (CMC) 97 % of control | dose: 200.0 mg/kg/injection, schedule: Q01DX001 (ip), vehicle: carboxymethylcellulose (CMC) 97 % of control and 100 % of control | dose: 200.0 mg/kg/injection, schedule: Q04DX002 (ip), vehicle: carboxymethylcellulose (CMC) 100 % of control and 87 % of control | dose: 200.0 mg/kg/injection, schedule: Q04DX003 (ip), vehicle: carboxymethylcellulose (CMC) 92 % of control | dose: 400.0 mg/kg/injection, schedule: Q01DX001 (ip), vehicle: carboxymethylcellulose (CMC) 102 % of control and 90 % of control | dose: 400.0 mg/kg/injection, schedule: Q04DX002 (ip), vehicle: carboxymethylcellulose (CMC) 86 % of control and 92 % of control | dose: 400.0 mg/kg/injection, schedule: Q04DX003 (ip), vehicle: carboxymethylcellulose (CMC) 101 % of control

CC1CCCN(P(c2ccccc2)N2CCCC(C)C2)C1 (stereo not drawn)
inactive: dose: 100.0 mg/kg/injection, schedule: Q04DX002 (sc), vehicle: olive oil, sesame oil, peanut oil 97 % of control | dose: 200.0 mg/kg/injection, schedule: Q04DX002 (sc), vehicle: olive oil, sesame oil, peanut oil 100 % of control | dose: 400.0 mg/kg/injection, schedule: Q04DX002 (sc), vehicle: olive oil, sesame oil, peanut oil 100 % of control

O=[N+]([O-])c1ccc(-c2nc3c(o2)CCC3)cc1
inactive: dose: 100.0 mg/kg/injection, schedule: Q04DX003 (ip), vehicle: saline with Tween-80 98 % of control | dose: 200.0 mg/kg/injection, schedule: Q04DX003 (ip), vehicle: saline with Tween-80 105 % of control | dose: 400.0 mg/kg/injection, schedule: Q04DX003 (ip), vehicle: saline with Tween-80 96 % of control

O=C(Nc1ccccc1-c1ccc([N+](=O)[O-])cc1)c1ccc(Cl)c(Cl)c1
inactive: dose: 100.0 mg/kg/injection, schedule: Q04DX003 (ip), vehicle: water 93 % of control | dose: 200.0 mg/kg/injection, schedule: Q04DX003 (ip), vehicle: water 93 % of control | dose: 400.0 mg/kg/injection, schedule: Q04DX003 (ip), vehicle: water 93 % of control

CC1(C)C=CC2CC2(C)C(=O)C1 (stereo not drawn)
inactive: dose: 100.0 mg/kg/injection, schedule: Q04DX002 (ip), vehicle: saline with Tween-80 98 % of control | dose: 200.0 mg/kg/injection, schedule: Q04DX002 (ip), vehicle: saline with Tween-80 112 % of control | dose: 400.0 mg/kg/injection, schedule: Q04DX002 (ip), vehicle: saline with Tween-80 102 % of control
